Test results reported in patent US20130244999A1, “Substituted Heterocyclic Compounds” (Incyte Corporation, priority 2008, published 2013).

Target: T1, histamine H4 receptor (Homo sapiens, UniProt Q9H3N8)
T1 construct: expressed in transfected cells; host or cells: HEK293SFM cells (membrane preparation)
Assay: Inhibition of histamine H4 receptor (Table A1; H4 membrane binding assay)
Details: for IC50: histamine H4 receptor, "> a" = exceeds experiment limit
Procedure, shortened: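 Membranes came from recombinant HEK293SFM cells expressing human H4, homogenized in 50 mM Tris-HCl pH 7.5 with protease inhibitors. Nonspecific binding was set with 1000× unlabeled ligand. Bound radioligand was separated on PEI-treated GF/B filters and counted by liquid scintillation.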

T1 sequence (Q9H3N8 whole entry): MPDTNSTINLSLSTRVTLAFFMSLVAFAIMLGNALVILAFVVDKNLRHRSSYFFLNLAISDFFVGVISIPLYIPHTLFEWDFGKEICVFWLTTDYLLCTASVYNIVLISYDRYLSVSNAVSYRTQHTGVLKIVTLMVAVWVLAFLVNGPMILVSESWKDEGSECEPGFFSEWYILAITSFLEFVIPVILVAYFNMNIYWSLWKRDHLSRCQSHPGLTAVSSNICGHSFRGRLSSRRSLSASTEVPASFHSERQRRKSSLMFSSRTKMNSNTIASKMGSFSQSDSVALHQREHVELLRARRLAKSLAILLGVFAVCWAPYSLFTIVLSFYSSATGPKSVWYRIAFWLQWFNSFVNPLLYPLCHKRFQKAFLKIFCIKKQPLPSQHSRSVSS

SMILES | IC50 [nM] | inhibition at 1 µM [%]
CC(C)OC(=O)N1CCC(c2ccc3c(c2)CN(c2cc(N4CCN(C)CC4)nc(N)n2)C(C)C3)CC1 (stereo not shown) [Example 139, Isopropyl 4-{2-[2-amino-6-(4-methylpiperazin-1-yl)pyrimidin-4-yl]-3-methyl-1,2,3,4-tetrahydroisoquinolin-7-yl}piperidine-1-carboxylate] | 54 | –
CC1Cc2ccc(-c3ccnc(C(=O)N4CC(O)C4)c3)cc2CN1c1cc(N2CCN(C)CC2)nc(N)n1 (stereo not shown) [Example 153, 1-[(4-{2-[2-Amino-6-(4-methylpiperazin-1-yl)pyrimidin-4-yl]-3-methyl-1,2,3,4-tetrahydroisoquinolin-7-yl}pyridin-2-yl)carbonyl]azetidin-3-ol] | 27 | –
CC1Cc2ccc(-c3ccnc(C(=O)N4CC(C#N)C4)c3)cc2CN1c1cc(N2CCN(C)CC2)nc(N)n1 (single isomer, unassigned) [Example 63A, 1-[(4-{2-[2-amino-6-(4-methylpiperazin-1-yl)pyrimidin-4-yl]-3-methyl-1,2,3,4-tetrahydroisoquinolin-7-yl}pyridin-2-yl)carbonyl]azetidine-3-carbonitrile] | 44 | –
CC1Cc2ccc(-c3ccn(CCC#N)n3)cc2CN1c1cc(N2CCN(C)CC2)nc(N)n1 (single isomer, unassigned) [Example 83B, 3-(3-{2-[2-Amino-6-(4-methylpiperazin-1-yl)pyrimidin-4-yl]-3-methyl-1,2,3,4-tetrahydroisoquinolin-7-yl}-1,1-pyrazol-1-yl)propanenitrile] | – | 61
CN1CCN(c2cc(N3CCc4ccc(Oc5ccc(C#N)c(Cl)c5)cc4C3)nc(N)n2)CC1 [Example 22, 4-({2-[2-Amino-6-(4-methylpiperazin-1-yl)pyrimidin-4-yl]-1,2,3,4-tetrahydroisoquinolin-7-yl}oxy)-2-chlorobenzonitrile] | 367 | –
Cc1nc(-c2ccc3c(c2)CN(c2cc(N4CCN(C)CC4)nc(N)n2)C(C)C3)cs1 (stereo not shown) [Example 116, 4-[3-Methyl-7-(2-methyl-1,3-thiazol-4-yl)-3,4-dihydroisoquinolin-2(1H)-yl]-6-(4-methylpiperazin-1-yl)pyrimidin-2-amine] | 20 | –
CC1Cc2ccc(-c3cncc(C(=O)N(C)C)c3)cc2CN1c1cc(N2CCN(C)CC2)nc(N)n1 (single isomer, unassigned) [Example 74, 5-{2-[2-Amino-6-(4-methylpiperazin-1-yl)pyrimidin-4-yl]-3-methyl-1,2,3,4-tetrahydroisoquinolin-7-yl}-N,N-dimethylnicotinamide] | 148 | –
CN1CCN(c2cc(N3CCc4ccc(N5CCN(C(=O)Nc6ccc(Cl)cc6)CC5)cc4C3)nc(N)n2)CC1 [Example 33, 4-{2-[2-Amino-6-(4-methylpiperazin-1-yl)pyrimidin-4-yl]-1,2,3,4-tetrahydroisoquinolin-7-yl}-N-(4-chlorophenyl)piperazine-1-carboxamide] | 266 | –
CN1CCN(c2cc(N3CCc4ccc(-n5cc(Cl)cn5)cc4C3)nc(N)n2)CC1 [Example 14, 4-[7-(4-Chloro-1,1-pyrazol-1-yl)-3,4-dihydroisoquinolin-2(1H)-yl]-6-(4-methylpiperazin-1-yl)pyrimidin-2-amine] | 223 | –
CCOc1nc(-c2ccc3c(c2)CN(c2cc(N4CCN(C)CC4)nc(N)n2)C(C)C3)cs1 (stereo not shown) [Example 117, 4-[7-(2-Ethoxy-1,3-thiazol-4-yl)-3-methyl-3,4-dihydroisoquinolin-2(1H)-yl]-6-(4-methylpiperazin-1-yl)pyrimidin-2-amine] | 43 | –
CCNC(=O)c1ncc(-c2ccc3c(c2)CN(c2cc(N4CCN(C)CC4)nc(N)n2)C(C)C3)cn1 (single isomer, unassigned) [Example 77, 5-{2-[2-Amino-6-(4-methylpiperazin-1-yl)pyrimidin-4-yl]-3-methyl-1,2,3,4-tetrahydroisoquinolin-7-yl}-N-ethylpyrimidine-2-carboxamide] | 149 | –
CCn1ccc(-c2ccc3c(c2)CN(c2cc(N4CCN(C)CC4)nc(N)n2)C(C)C3)n1 (single isomer, unassigned) [Example 86A, 4-[7-(1-Ethyl-1H-pyrazol-3-yl)-3-methyl-3,4-dihydroisoquinolin-2(1H)-yl]-6-(4-methylpiperazin-1-yl)pyrimidin-2-amine] | 40 | –
CC1Cc2ccc(-c3ccn(CC#N)n3)cc2CN1c1cc(N2CCN(C)CC2)nc(N)n1 (single isomer, unassigned) [Example 82A, (3-{2-[2-Amino-6-(4-methylpiperazin-1-yl)pyrimidin-4-yl]-3-methyl-1,2,3,4-tetrahydroisoquinolin-7-yl}-1H-pyrazol-1-yl)acetonitrile] | 22 | –
CN1CCN(c2cc(N3CCc4ccc(C(=O)N5CCCC5)cc4C3)nc(N)n2)CC1 [Example 29, 4-(4-Methylpiperazin-1-yl)-6-[7-(pyrrolidin-1-ylcarbonyl)-3,4-dihydroisoquinolin-2 (1H)-yl]pyrimidin-2-amine] | 229 | –
CC1Cc2ccc(C3=CCN(c4cc(C#N)ccn4)CC3)cc2CN1c1cc(N2CCN(C)CC2)nc(N)n1 (stereo not shown) [Example 137, 4-{2-[2-Amino-6-(4-methylpiperazin-1-yl)pyrimidin-4-yl]-3-methyl-1,2,3,4-tetrahydroisoquinolin-7-yl}-3,6-dihydro-2H-1,2′-bipyridine-4′-carbonitrile] | 84 | –
CN1CCN(c2cc(N3CCc4ccc(-c5ccc(C(=O)NCc6ccccn6)nc5)cc4C3)nc(N)n2)CC1 [Example 18, 5-{2-[2-Amino-6-(4-methylpiperazin-1-yl)pyrimidin-4-yl]-1,2,3,4-tetrahydroisoquinolin-7-yl}-N-(pyridin-2-ylmethyl)pyridine-2-carboxamide] | 65 | –
CC1Cc2ccc(-c3cnn(C4CCS(=O)(=O)C4)c3)cc2CN1c1cc(N2CCN(C)CC2)nc(N)n1 (stereo not shown) [Example 98B, 4-[7-[1-(1,1-dioxidotetrahydro-3-thienyl)-1H-pyrazol-4-yl]-3-methyl-3,4-dihydroisoquinolin-2(1H)-yl]-6-(4-methylpiperazin-1-yl)pyrimidin-2-amine] | – | 56
CNC(=O)c1csc(-c2ccc3c(c2)CN(c2cc(N4CCN(C)CC4)nc(N)n2)CC3)n1 [Example 47, 2-{2-[2-Amino-6-(4-methylpiperazin-1-yl)pyrimidin-4-yl]-1,2,3,4-tetrahydroisoquinolin-7-yl}-N-methyl-1,3-thiazole-4-carboxamide] | 127 | –
CN1CCN(c2cc(N3CCc4ccc(N5CCC(c6ccncc6)CC5)cc4C3)nc(N)n2)CC1 [Example 38, 4-(4-Methylpiperazin-1-yl)-6-[7-(4-pyridin-4-ylpiperidin-1-yl)-3,4-dihydroisoquinolin-2(1H)-yl]pyrimidin-2-amine] | 186 | –
CC1Cc2ccc(-c3ccc(C(=O)N4CC(C#N)C4)nc3)cc2CN1c1cc(N2CCN(C)CC2)nc(N)n1 (single isomer, unassigned) [Example 54A, 1-[(5-{2-[2-amino-6-(4-methylpiperazin-1-yl)pyrimidin-4-yl]-3-methyl-1,2,3,4-tetrahydroisoquinolin-7-yl}pyridin-2-yl)carbonyl]azetidine-3-carbonitrile] | 99 | –
CC1Cc2ccc(-c3ccnc(C(=O)N(C)C)c3)cc2CN1c1cc(N2CCN(C)CC2)nc(N)n1 (single isomer, unassigned) [Example 61A, 4-{2-[2-amino-6-(4-methylpiperazin-1-yl)pyrimidin-4-yl]-3-methyl-1,2,3,4-tetrahydroisoquinolin-7-yl}-N,N-dimethylpyridine-2-carboxamide] | 110 | –
CNC(=O)c1ccc(-c2ccc3c(c2)CN(c2cc(N4CCN(C)CC4)nc(N)n2)C(C)C3)cn1 (single isomer, unassigned) [Example 49A] | 45 | –
CC1Cc2ccc(-c3ccc4c(c3)N(C)C(=O)CO4)cc2CN1c1cc(N2CCN(C)CC2)nc(N)n1 (stereo not shown) [Example 132, 6-{2-[2-Amino-6-(4-methylpiperazin-1-yl)pyrimidin-4-yl]-3-methyl-1,2,3,4-tetrahydroisoquinolin-7-yl}-4-methyl-2H-1,4-benzoxazin-3(4H)-one] | 39 | –
CC1Cc2ccc(-c3ccc(C(=O)N(C)C)cn3)cc2CN1c1cc(N2CCN(C)CC2)nc(N)n1 (single isomer, unassigned) [Example 72, 6-{2-[2-Amino-6-(4-methylpiperazin-1-yl)pyrimidin-4-yl]-3-methyl-1,2,3,4-tetrahydroisoquinolin-7-yl}-N,N-dimethylnicotinamide] | 269 | –
CC1Cc2ccc(-c3ccnc(C(=O)N4CCC4)c3)cc2CN1c1cc(N2CCN(C)CC2)nc(N)n1 (single isomer, unassigned) [Example 62A, 4-[7-[2-(azetidin-1-ylcarbonyl)pyridin-4-yl]-3-methyl-3,4-dihydroisoquinolin-2 (1H)-yl]-6-(4-methylpiperazin-1-yl)pyrimidin-2-amine] | 46 | –
CC1Cc2ccc(-c3ccc(C(=O)N4CC(O)C4)nc3)cc2CN1c1cc(N2CCN(C)CC2)nc(N)n1 (single isomer, unassigned) [Example 60, 1-[(5-{2-[2-Amino-6-(4-methylpiperazin-1-yl)pyrimidin-4-yl]-3-methyl-1,2,3,4-tetrahydroisoquinolin-7-yl}pyridin-2-yl)carbonyl]azetidin-3-ol] | 130 | –
CC1Cc2ccc(-c3cnn(CC4CCC4)c3)cc2CN1c1cc(N2CCN(C)CC2)nc(N)n1 (single isomer, unassigned) [Example 106, 4-[7-[1-(cyclobutylmethyl)-1H-pyrazol-4-yl]-3-methyl-3,4-dihydroisoquinolin-2(1H)-yl]-6-(4-methylpiperazin-1-yl)pyrimidin-2-amine] | 63 | –
CC(=O)N1CCC(c2ccc3c(c2)CN(c2cc(N4CCN(C)CC4)nc(N)n2)C(C)C3)CC1 (stereo not shown) [Example 146, 4-[7-(1-Acetylpiperidin-4-yl)-3-methyl-3,4-dihydroisoquinolin-2 (1H)-yl]-6-(4-methylpiperazin-1-yl)pyrimidin-2-amine] | 22.8 | –
